According to ChEMBL document CHEMBL1201862, “PubChem BioAssay data set” (2004):
Where a name gives a salt, the structure may show the parent alone.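 Cells were grown in 96-well plates and exposed to each compound for 48 hours at five concentrations; endpoints were interpolated linearly between bracketing concentrations, or set to the highest concentration if not reached. GI50 = concentration required for 50% inhibition of growth.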 Calls of active or inactive are those of the source. Rule as the data show it: active = GI50 up to about 1.1 µM and inactive = higher.

Columns and labels:
Test in all cases: NCI anticancer screen, dose series, 48 h
SK-OV-3 = system: SK-OV-3
SW-620 = system: SW-620
NCI-H23 = system: NCI-H23
HL-60 = system: HL-60
BT-549 = system: BT-549
SF-295 = system: SF-295
SK-MEL-28 = system: SK-MEL-28
RPMI-8226 = system: RPMI-8226
A498 = system: A498
T47D = system: T47D
NCI-H226 = system: NCI-H226
TK-10 = system: TK-10
Malme-3M = system: Malme-3M
NCI/ADR-RES = system: NCI/ADR-RES
HCC 2998 = system: HCC 2998
DU-145 = system: DU-145
COLO 205 = system: COLO 205
CAKI-1 = system: CAKI-1
SK-MEL-5 = system: SK-MEL-5
MOLT-4 = system: MOLT-4

| Compound | GI50 (SK-OV-3) | GI50 (SW-620) | GI50 (NCI-H23) | GI50 (HL-60) | GI50 (BT-549) | GI50 (SF-295) | GI50 (SK-MEL-28) | GI50 (RPMI-8226) | GI50 (A498) | GI50 (T47D) | GI50 (NCI-H226) | GI50 (TK-10) | GI50 (Malme-3M) | GI50 (NCI/ADR-RES) | GI50 (HCC 2998) | GI50 (DU-145) | GI50 (COLO 205) | GI50 (CAKI-1) | GI50 (SK-MEL-5) | GI50 (MOLT-4) |
| --- | --- | --- | --- | --- | --- | --- | --- | --- | --- | --- | --- | --- | --- | --- | --- | --- | --- | --- | --- | --- |
| CN(C)CCCc1cccnc1 | > 100 µM (inactive) | > 100 µM (inactive) | > 100 µM (inactive) | > 100 µM (inactive) | > 100 µM (inactive) | > 100 µM (inactive) | > 100 µM (inactive) | > 100 µM (inactive) | > 100 µM (inactive) | > 100 µM (inactive) | > 100 µM (inactive) | > 100 µM (inactive) | > 100 µM (inactive) | > 100 µM (inactive) | > 100 µM (inactive) | > 100 µM (inactive) | > 100 µM (inactive) | > 100 µM (inactive) | > 100 µM (inactive) | – |
| C=CCOC1=C(OC(C)=O)C(=O)OC1C1COC(C)(C)O1 (stereo not drawn) | > 100 µM (inactive) | 25.6 µM (inactive) | 31.5 µM (inactive) | 18.5 µM (inactive) | 43.1 µM (inactive) | 79.1 µM (inactive) | 17.3 µM (inactive) | 31.8 µM (inactive) | > 89.5 µM (inactive) | 23.4 µM (inactive) | 61.1 µM (inactive) | 67 µM (inactive) | 21.8 µM (inactive) | > 61.5 µM (inactive) | 36.4 µM (inactive) | > 92.9 µM (inactive) | 29.6 µM (inactive) | 37.7 µM (inactive) | 44.6 µM (inactive) | 18.4 µM (inactive) |
| O=[N+]([O-])c1ccc2sc(/C=N/c3ccccn3)cc2c1 | > 100 µM (inactive) | 21.7 µM (inactive) | 98.2 µM (inactive) | 28.5 µM (inactive) | 85.1 µM (inactive) | 82.8 µM (inactive) | > 100 µM (inactive) | 22.6 µM (inactive) | > 100 µM (inactive) | 26 µM (inactive) | – | > 100 µM (inactive) | > 100 µM (inactive) | 97.7 µM (inactive) | > 100 µM (inactive) | 77.6 µM (inactive) | > 100 µM (inactive) | > 100 µM (inactive) | > 100 µM (inactive) | 19.7 µM (inactive) |
| CC1(C)C2CCC(N)(C2)C1N (stereo not drawn) | > 100 µM (inactive) | > 100 µM (inactive) | > 100 µM (inactive) | 22.3 µM (inactive) | > 100 µM (inactive) | > 100 µM (inactive) | > 100 µM (inactive) | > 100 µM (inactive) | > 100 µM (inactive) | > 100 µM (inactive) | > 100 µM (inactive) | > 100 µM (inactive) | – | > 100 µM (inactive) | > 100 µM (inactive) | > 100 µM (inactive) | > 100 µM (inactive) | > 100 µM (inactive) | > 100 µM (inactive) | > 100 µM (inactive) |
| CC(NC1=CC(=O)c2cccnc2C1=O)C(O)c1ccccc1 (stereo not drawn) | 2.92 µM (inactive) | 1.66 µM (inactive) | 1.06 µM (active) | 1.85 µM (inactive) | 1.45 µM (inactive) | 1.28 µM (inactive) | 1.62 µM (inactive) | 2.09 µM (inactive) | 3.62 µM (inactive) | 2.87 µM (inactive) | 1.96 µM (inactive) | 14.8 µM (inactive) | 1.48 µM (inactive) | 3.63 µM (inactive) | 3.1 µM (inactive) | 1.6 µM (inactive) | 1.86 µM (inactive) | 1.32 µM (inactive) | 1.09 µM (active) | 4.12 µM (inactive) |
| O=C1Nc2cc(Cl)ccc2C(=O)N2CCC[C@@H]12 | > 100 µM (inactive) | > 100 µM (inactive) | > 100 µM (inactive) | > 100 µM (inactive) | > 100 µM (inactive) | > 100 µM (inactive) | > 100 µM (inactive) | > 100 µM (inactive) | > 100 µM (inactive) | > 100 µM (inactive) | 0.929 µM (active) | > 100 µM (inactive) | > 100 µM (inactive) | > 100 µM (inactive) | > 100 µM (inactive) | > 100 µM (inactive) | 57.1 µM (inactive) | > 100 µM (inactive) | > 100 µM (inactive) | – |
| O=C(Cn1c(=O)oc2ccc(C(=O)c3ccccc3Cl)cc21)c1ccc([N+](=O)[O-])cc1 | 21.9 µM (inactive) | 26.8 µM (inactive) | 25.4 µM (inactive) | 11.2 µM (inactive) | 19.1 µM (inactive) | 21.8 µM (inactive) | 37.8 µM (inactive) | 9.51 µM (inactive) | 30.1 µM (inactive) | 8.11 µM (inactive) | 34.2 µM (inactive) | 51.1 µM (inactive) | 25.5 µM (inactive) | 22.6 µM (inactive) | 17.9 µM (inactive) | 42 µM (inactive) | 20.6 µM (inactive) | 38.5 µM (inactive) | 16.3 µM (inactive) | 8.2 µM (inactive) |
| Clc1ccc(C2=Cc3nc2c(-c2ccccc2)c2ccc([nH]2)c(-c2ccccc2)c2nc(c(-c4ccccc4)c4ccc([nH]4)c3-c3ccccc3)C=C2)cc1 | > 62.5 µM (inactive) | > 62.5 µM (inactive) | > 62.5 µM (inactive) | > 62.5 µM (inactive) | > 62.5 µM (inactive) | > 62.5 µM (inactive) | > 62.5 µM (inactive) | > 62.5 µM (inactive) | > 62.5 µM (inactive) | > 62.5 µM (inactive) | > 62.5 µM (inactive) | > 62.5 µM (inactive) | > 62.5 µM (inactive) | > 62.5 µM (inactive) | > 62.5 µM (inactive) | > 62.5 µM (inactive) | > 62.5 µM (inactive) | 13.9 µM (inactive) | > 62.5 µM (inactive) | > 62.5 µM (inactive) |
| O=C(CC(=O)Nc1ccccc1Cl)NNC(Sc1ccccc1)c1cc(/N=N/c2ccc(Br)cc2)ccc1O (stereo not drawn) | 3.03 µM (inactive) | 0.69 µM (active) | 1.85 µM (inactive) | 0.315 µM (active) | 1.66 µM (inactive) | 1.88 µM (inactive) | 2.69 µM (inactive) | 1.23 µM (inactive) | 2.39 µM (inactive) | 2.02 µM (inactive) | 1.67 µM (inactive) | 1.69 µM (inactive) | 2.12 µM (inactive) | 1.28 µM (inactive) | 2.81 µM (inactive) | 2.28 µM (inactive) | 4.35 µM (inactive) | 1.46 µM (inactive) | 1.07 µM (active) | 0.321 µM (active) |
| CCCCCCCCCCCCCCCCCCNc1ccn(C2OC(COP(=O)(O)OCC3OC(n4cc(C)c(=O)[nH]c4=O)CC3F)C(O)C2O)c(=O)n1 (stereo not drawn) | 8.63 µM (inactive) | 5.86 µM (inactive) | 8.65 µM (inactive) | 5.46 µM (inactive) | 5.19 µM (inactive) | 9.89 µM (inactive) | 8.87 µM (inactive) | 3.52 µM (inactive) | 13.8 µM (inactive) | 7.38 µM (inactive) | 37.8 µM (inactive) | 3.08 µM (inactive) | 15 µM (inactive) | 30.9 µM (inactive) | 5.7 µM (inactive) | 11.4 µM (inactive) | 3.34 µM (inactive) | 8.73 µM (inactive) | 9.89 µM (inactive) | 3.13 µM (inactive) |
| O=C(CN1C(=O)c2ccccc2C1=O)OCC1CCCN2CCCCC12 (stereo not drawn) | > 100 µM (inactive) | > 100 µM (inactive) | > 100 µM (inactive) | > 100 µM (inactive) | > 100 µM (inactive) | > 100 µM (inactive) | > 100 µM (inactive) | > 100 µM (inactive) | > 100 µM (inactive) | > 100 µM (inactive) | > 100 µM (inactive) | > 100 µM (inactive) | > 100 µM (inactive) | > 100 µM (inactive) | > 100 µM (inactive) | > 100 µM (inactive) | 99.5 µM (inactive) | > 100 µM (inactive) | > 100 µM (inactive) | > 100 µM (inactive) |
| COc1ccc(C(=O)/C=C2\Nc3cccnc3N\C2=C/C(=O)c2ccc(OC)cc2)cc1 | 13 µM (inactive) | – | 13.5 µM (inactive) | > 100 µM (inactive) | 18.8 µM (inactive) | 16.9 µM (inactive) | 16.9 µM (inactive) | 42.2 µM (inactive) | > 100 µM (inactive) | 11.5 µM (inactive) | 4.8 µM (inactive) | 13.2 µM (inactive) | 11.7 µM (inactive) | 17.4 µM (inactive) | 23.9 µM (inactive) | 19.9 µM (inactive) | 60.5 µM (inactive) | 17.2 µM (inactive) | 25.1 µM (inactive) | 27.9 µM (inactive) |
| NCCCCN [PUTRESCINE HYDROCHLORIDE] | > 100 µM (inactive) | > 100 µM (inactive) | > 100 µM (inactive) | > 100 µM (inactive) | > 100 µM (inactive) | > 100 µM (inactive) | > 100 µM (inactive) | – | > 100 µM (inactive) | > 100 µM (inactive) | > 100 µM (inactive) | > 100 µM (inactive) | > 100 µM (inactive) | > 100 µM (inactive) | > 100 µM (inactive) | > 100 µM (inactive) | > 100 µM (inactive) | 15 µM (inactive) | > 100 µM (inactive) | > 100 µM (inactive) |
| Cc1cn([C@H]2C[C@H](N=[N+]=[N-])[C@@H](CO)O2)c(=O)[nH]c1=O [ZIDOVUDINE] | > 100 µM (inactive) | > 100 µM (inactive) | > 100 µM (inactive) | 646 µM (inactive) | 488 µM (inactive) | – | > 100 µM (inactive) | 48.3 µM (inactive) | 66.2 µM (inactive) | > 100 µM (inactive) | > 100 µM (inactive) | 656 µM (inactive) | > 100 µM (inactive) | > 96.4 µM (inactive) | > 100 µM (inactive) | 420 µM (inactive) | 98.4 µM (inactive) | > 97.1 µM (inactive) | 118 µM (inactive) | > 100 µM (inactive) |
